Assay results as given in paper PMC12051055, “Spectroscopy and crystallography define carotenoid oxygenases as a new subclass of mononuclear non-heme Fe^II enzymes” (The Journal of Biological Chemistry, 2025).

Target: T1, CAO1 (Neurospora crassa carotenoid oxygenase 1) (Neurospora crassa, UniProt Q7S860)
T1 construct: gene cao-1
T1 sequence (Q7S860 1-526): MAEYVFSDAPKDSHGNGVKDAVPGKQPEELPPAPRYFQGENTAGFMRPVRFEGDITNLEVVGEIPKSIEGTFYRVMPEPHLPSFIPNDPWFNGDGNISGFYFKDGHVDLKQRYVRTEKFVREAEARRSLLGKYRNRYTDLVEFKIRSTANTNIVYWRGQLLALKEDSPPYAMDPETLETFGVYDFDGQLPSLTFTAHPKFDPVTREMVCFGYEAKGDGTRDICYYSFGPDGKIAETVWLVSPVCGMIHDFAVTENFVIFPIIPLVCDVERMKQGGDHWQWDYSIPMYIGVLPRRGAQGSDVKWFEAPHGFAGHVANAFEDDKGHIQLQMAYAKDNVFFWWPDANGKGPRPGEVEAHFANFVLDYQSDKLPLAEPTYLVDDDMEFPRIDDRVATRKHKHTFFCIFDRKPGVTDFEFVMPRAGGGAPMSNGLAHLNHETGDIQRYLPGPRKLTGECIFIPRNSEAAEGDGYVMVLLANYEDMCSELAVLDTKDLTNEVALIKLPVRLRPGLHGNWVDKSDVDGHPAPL
Test: UV-visible/CD titration of Fe(II)-CAO1 (anaerobic); also X-ray crystal structure, MCD, steady-state kinetics
Assay type: binding

SMILES: Oc1cc(O)cc(/C=C/c2ccc(O)c(O)c2)c1 [piceatannol]
- Kd: 50 nM
